Measured values published in patent US7368420B1, “Akt compositions for enhancing survival of cells” (Caritas St. Elizabeth's Medical Center of Boston, Inc., priority 1998, dated 2008).
Entries after “also recorded” stand apart in the source; their conditions may differ.

Columns and labels:
cardiac myocytes = assay: Hoechst 33342 staining for pyknotic nuclei in cardiac myocytes; format: cell-based, rat; details: serum-free media with IGF-1
[1] = tested on: neonatal rat cardiac myocytes; assay: Neonatal cardiac myocyte viability, trypan-blue exclusion assay; format: cell-based
cardiomyocytes = assay: TUNEL analysis of cultured cardiomyocytes; format: cell-based, rat; details: increasing concentrations of IGF-1, mock- and Adeno-β-gal-transfected cells, 48 hours
Akt [2] = assay: Akt kinase assay (histone H2B) in cardiac myocyte lysates; format: cell-based, rat; details: serum-deprived, 50 ng/ml IGF-1, 15 min
Akt, sequence (P31750 whole entry): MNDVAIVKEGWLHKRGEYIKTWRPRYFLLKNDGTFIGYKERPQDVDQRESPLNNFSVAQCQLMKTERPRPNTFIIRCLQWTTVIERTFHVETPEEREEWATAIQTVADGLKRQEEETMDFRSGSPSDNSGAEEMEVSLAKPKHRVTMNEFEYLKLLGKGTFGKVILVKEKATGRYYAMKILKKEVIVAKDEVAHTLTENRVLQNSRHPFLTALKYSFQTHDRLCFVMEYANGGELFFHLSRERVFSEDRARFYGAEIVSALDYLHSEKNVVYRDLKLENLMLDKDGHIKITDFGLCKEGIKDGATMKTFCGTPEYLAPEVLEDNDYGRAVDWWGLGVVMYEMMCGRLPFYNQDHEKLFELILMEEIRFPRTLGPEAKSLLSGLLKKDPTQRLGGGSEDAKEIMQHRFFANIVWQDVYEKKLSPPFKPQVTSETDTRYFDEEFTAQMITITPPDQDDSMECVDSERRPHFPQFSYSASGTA

p21 = assay: Western immunoblot of C2C12 lysates, anti-p21; format: cell-based, murine; details: differentiation media with Lipofectin, 24 hours
Cdk4 = assay: Western immunoblot of C2C12 lysates, anti-Cdk4; format: cell-based, murine; details: differentiation media with Lipofectin, 24 hours
C2C12 cells [3] = assay: Flow cytometry (FACS) cell cycle analysis during myogenic differentiation; format: cell-based, murine; details: percentage of cells; differentiation media, 0.5 mM oligonucleotide, 24 hours; DNA content by FACS
C2C12 cells [4] = format: cell-based, murine
Akt [5] = format: cell-based, murine
HUVECs [6] = assay: HUVEC plasmid co-transfection cell-death assay (surviving β-galactosidase-positive cells); format: cell-based, human; details: 25 ng/ml VEGF, serum-free 21 hrs, control plasmid
HUVECs [7] = assay: HUVEC cell viability, Trypan-blue exclusion assay; format: cell-based, human; details: 100 ng/ml VEGF, serum-free DMEM, 21 hours
Akt2 = Akt2 kinase assay (histone H2B) in HUVEC lysates; format: cell-based, human; details: serum-deprived HUVEC, VEGF 100 ng/ml, 15 min

For “IGF-1: Insulin-like growth factor-1, purchased from Gibco BRL”, the “incidence of pyknotic nuclei” value (cardiac myocytes) was “suppressed the incidence of pyknotic nuclei”, the “time cardiac myocyte viability was sustained” value ([1]; 50 ng/ml IGF-1, serum-depleted) was “more than 48 hours” and the “cardiac myocyte viability / cytoprotection by IGF-1” value ([1]; serum-free media, up to 72 hours) was “dependent on the dose of IGF-1; also recorded: maintained”. For the same substance, the “frequency of myocyte apoptosis (TUNEL)” value (cardiomyocytes) was “reduced the frequency of myocyte apoptosis” and the “Akt activity (phosphorylation of histone H2B)” value (Akt [2]) was “induced the phosphorylation of histone H2B”.

For “5′-TGTCAGGCTGGTCTGCCTCC-3′ (antisense TGTCAGGCTGGTCTGCCTCC; chemistry not given here) [p21-AS]”, the “induction of p21” value (p21) was “markedly inhibited the induction of p21”, the cdk4 expression (Cdk4) was “no significant effect on cdk4” and the “Cell cycle phase G0/G1” value (C2C12 cells [3]) was 38. For the same substance, the “Cell cycle phase G2/M” value (C2C12 cells [3]) was 17, the “Cell cycle phase S” value (C2C12 cells [3]) was 45 and the “cell-death versus control cultures” value (C2C12 cells [4]) was “Markedly enhanced cell-death”. For the same substance, the Akt expression (Akt [5]) was “statistically significant reduction in Akt expression”.

VEGF was tested, and the “increase in number of surviving β-galactosidase positive cells (factor)” value (HUVECs [6]) was 3, the “cell loss induced by serum-deprivation” value (HUVECs [7]) was “completely reversed cell loss induced by serum-deprivation” and the Akt2 kinase activity (Akt2) was “little or no activation of Akt2”.

For “5′-TGG ATC CGA CAT GTC AGA-3′ (TGGATCCGACATGTCAGA; all phosphorothioate, sugars by position and methylation of C not given here) [Control]”, the “Cell cycle phase G0/G1” value (C2C12 cells [3]) was 67, the “Cell cycle phase G2/M” value (C2C12 cells [3]) was 8 and the “Cell cycle phase S” value (C2C12 cells [3]) was 25.
